From patent US6743895B1, “Bone stimulating factor” (Osteopharm Inc., priority 1995, dated 2004)
No end group written: not given here.

Assays:
rats = assay: Bone mineral apposition rate in intact rats after subcutaneous injection of polypeptide, tetracycline labelling; assay type: in vivo, Sprague-Dawley rats; settings: for Increase of bone apposition rate with respect to the control: non-N-terminus variants (Table Nineteen, FIG. 12); for Bone Apposition Rate, Mean: rats injected with non-N-terminus variants, SEQ ID NO:1 for comparison, lower metaphysis of right femur (Table Nineteen); for Bone stimulatory activity of substituted 10-amino acid polypeptides: rats about 300 grams, 100 nmoles s.c. per animal, N-terminus acetylated, C-terminus amidated, compared with family retaining full charge pattern
Description: Experiments were carried out on three groups of six rats weighing between 295 and 320 g. A 1 mg per ml solution of the modified peptide (SEQ ID NO:3) was prepared in 0.1% acetic acid. A 1 mg per ml solution of the normal peptide (SEQ ID NO:1) was prepared in 0.1% acetic acid. Each rat of a first of the groups had subcutaneously injected into its right thigh 0.1 ml of the modified peptide solution. Similarly, each rat of the second group was injected with 0.1 ml of the normal peptide solution. Each rat of the third group, the control group, was injected with 0.1 ml of 0.1% acetic acid solution. Immediately following these injections, each rat was injected intramuscularly with 24 mg per Kg body weight of tetracycline hydrochloride dissolved in 0.5 ml of water. A second dose of tetracycline hydrochloride was administered 48 hours later. The animals were sacrificed 24 hours after the second dose by CO2 narcosis. The lower metaphysis of the right femur was dissected out and fixed in a 10% aqueous solution of formaldehyde buffered at pH 7.2 by acetate buffer. Bone sections were prepared for measurement as described above.
Sprague-Dawley rats were used as test animals to determine bone mineral apposition rate, as described above. Male rats having weights between 280 and 380 g were subject to subcutaneous injection after one week of acclimatization. Each animal was injected with 200 μl of a 0.1% acetic acid test solution, solutions having been prepared at concentrations to obtain a dosage of about 25 nmol of polypeptide per animal. Each test dose was immediately followed by intramuscular injection of 24 mg per Kg of body weight of tetracycline hydrochloride. A second injection of tetracycline was made 48 hours later.
Bone mineral apposition rates were determined by measurements of the lower metaphysis of the right femur, as described previously. Results obtained in the two sets of experiments are summarized in Tables Seven and Eight and graphically depicted in FIGS. 8 and 9.
Bone mineral apposition rates were again determined by measurement of the lower metaphysis of the right femur. Results obtained are summarized in Table Nineteen and graphically depicted in FIG. 12. […]
In a final set of experiments, a polypeptide having the ninth amino acid, cysteine, replaced by the amino acid tyrosine, SEQ ID NO:43, was synthesized and tested for bone stimulatory activity. Four rats (about 300 grams) were each administered with 100 nmoles of material (in 400 μl 20 mM acetic acid solution) by subcutaneous injection along with tetracycline (5 mg per animal in 400 μl water), as described above. A second dosage of tetracycline was administered 48 hours later and the animals sacrificed 24 hours after that. The lower metaphysis of the right femur was examined to determine the bone mineral apposition rate. For comparison, experiments were performed using a control in which no compound was present in the acetic acid solution.

[1] = Stability of dissolved polypeptides (capillary electrophoresis, RP-HPLC); assay type: physicochemical; settings: for Stability relative to SEQ ID NOs: 7 or 24: general summary of stability tests
Description: Each of the polypeptides having the sequences identified as SEQ ID NO: 7 and 24 was dissolved in 5 mM acetic acid to a final concentration of 1 mg/ml and incubated at 37° C. The peptide compositions were analyzed weekly by capillary electrophoresis on a P/ACE 6000 system (Beckman) using 50 mM sodium phosphate pH 2.5 as the running buffer on a 57 cm long×75 μm internal diameter capillary. The incubated peptide (20 μl) was diluted with 80 μl of running buffer, placed in a 500 μl vial prior to injection onto the P/ACE using pressure for 20 seconds. Following electrophoresis of the incubated peptide at 30 kV for 15 min a second run was carried out using freshly dissolved peptide as a control.
Each of the polypeptides was dissolved in 20 mM sodium phosphate pH 3.0, 20 mM ammonium acetate pH 4.0, 20 mM ammonium acetate pH 5.0, 20 mM MES pH 6.0, 20 mM sodium phosphate pH 7.0, 20 mM sodium phosphate pH 7.5, 20 mM sodium phosphate pH 8.0, 20 mM ammonium acetate pH 8.5 or 20 mM ammonium acetate pH 9.5 to a final concentration of 1 mg/ml. The peptide was incubated at 37° C. and the peptide assayed weekly by separation on P/ACE as described above. Some samples were separated by RP-HPLC and the isolated peaks subjected to mass spectroscopic analysis.
The protected polypeptide identified as SEQ ID NO:24 was dissolved in 20 mM or 250 mM ammonium acetate pH 4.5 to a final concentration of 1 mg/ml. In some experiments the buffer was supplemented with 20 mM EDTA. The peptide solution was then incubated at −70° C., −20° C., 4° C. or room temperature (22° C.). Samples were assayed weekly by electrophoresis on the P/ACE as described above and/or by RP-HPLC.
The stability of each of the polypeptides having the amino acid sequences identified as SEQ ID NOs: 25, 26 and 27 was tested as described above.

[2] = about 25 nmol per animal s.c., second, separate set (Table Eight)
[3] = about 125 nmoles of polypeptide per Kg of body weight (Table Twenty)
[4] = approximately 500 gm male Sprague-Dawley rats, 300 nmol/kg bodyweight (Table Twenty-Two)
[5] = male Sprague-Dawley rats 280-380 g, about 25 nmol per animal s.c., first set (Table Seven)
[6] = 20 mM buffers pH 3.0 to 9.5, 1 mg/ml, 37° C.

Q: Which “Bone mineral apposition rate, Mean” value (rats; [2]) does the source give for “Arg Thr Asn Glu His Thr Ala Asp Cys Lys (Ac-RTNEHTADCK-NH2) [SEQ ID NO:9]” here?
A: Its value is 2.83 μm/d.

Q: And the “Mean Bone Apposition Rate” value (rats; [3])?
A: The value was 2.11 μm/day.

Q: With “CH3CO-Arg Thr Asn Glu His Thr Ala Glu Cys Lys-NH2 (Ac-RTNEHTAECK-NH2) [SEQ ID NO:25]” as the substance, how does the “Stability relative to SEQ ID NOs: 7 or 24” value [1] read?
A: The value was “more stable”.

Q: And the Stability in solution ([1]; pH 2.5-3.0 for 20 days)?
A: The Stability in solution was “stable”.

Q: What about the “Mean Bone Apposition Rate” value (rats; Table Twenty-One, FIG. 14, N=4) of the same substance?
A: The value was 1.94 μm/day.

Q: With “CH3CO-Arg Thr Gln Glu His Thr Ala Asp Cys Lys-NH2 (Ac-RTQEHTADCK-NH2) [SEQ ID NO:27]” as the substance, how does the Stability in solution ([1]; all pHs tested, 37° C. for 3 days) read?
A: The Stability in solution was “unstable”.

Q: What about the “Stability relative to SEQ ID NOs: 7 or 24” value [1] of the same substance?
A: The value was “significantly less stable”.

Q: And the “Mean Bone Apposition Rate” value (rats; Table Twenty-One, FIG. 14, N=4)?
A: Its value is 1.72 μm/day.

Q: Which “Stability relative to SEQ ID NOs: 7 or 24” value [1] does the source give for “CH3CO-Arg Thr Gln Glu His Thr Ala Glu Cys Lys-NH2 (Ac-RTQEHTAECK-NH2) [SEQ ID NO:26]” here?
A: The value was “more stable”.

Q: What about the Stability in solution ([1]; pH 2.5-3.0, incubated at 37° C.) of the same substance?
A: The Stability in solution was “stable”.

Q: What about the “Mean Bone Apposition Rate” value (rats; Table Twenty-One, FIG. 14, N=4) of the same substance?
A: The value was 2.88 μm/day.

Q: What about the “Mean Bone Apposition Rate” value (rats; [4]) of the same substance?
A: The value was 2.04 μm/day.

Q: For “GIGKRTNEHTADAKIKPNTLHKKAAETLMVLDQNQP [SEQ ID NO:3]”, which “Bone mineral apposition rate, Mean” value (rats; rats 295-320 g, 0.1 ml of 1 mg per ml solution s.c., lower metaphysis of right femur (Table Six)) is on record?
A: The value was 1.35 μm/d.

Q: For GIGKRTNEHTADCK [SEQ ID NO:8], which “Bone mineral apposition rate, Mean” value (rats; [2]) is on record?
A: Its value is 2.09 μm/d.

Q: With GIGKRTNEHTADCKIKPNTL [SEQ ID NO:6] as the substance, how does the “Bone mineral apposition rate, Mean” value (rats; [5]) read?
A: Its value is 1.37 μm per day.

Q: With GIGKRTNEHTADCKIKPNTLHKKAA [SEQ ID NO:5] as the substance, how does the “Bone mineral apposition rate, Mean” value (rats; [5]) read?
A: The value was 1.35 μm per day.

Q: For “GIGKRTNEHTADCKIKPNTLHKKAAETLMV [SEQ ID NO:4]”, which “Bone mineral apposition rate, Mean” value (rats; [5]) is on record?
A: The value was 1.31 μm per day.

Q: Which “Increase of bone apposition rate with respect to the control” value (“Increase of bone apposition rate” below) (rats) does the source give for LHKKAAETLMVLD [SEQ ID NO:13] here?
A: Its value is “none”.

Q: Which “Increase of bone apposition rate” value (rats) does the source give for LHKKAAETLMVLDQ [SEQ ID NO:12] here?
A: Its value is “none”.

Q: With LHKKAAETLMVLDQN [SEQ ID NO:11] as the substance, how does the “Increase of bone apposition rate” value (rats) read?
A: Its value is “none”.

Q: For LHKKAAETLMVLDQNQ [SEQ ID NO:10], which “Increase of bone apposition rate” value (rats) is on record?
A: Its value is “none”.

Q: Which results are given for RTNEHTADCKI [SEQ ID NO:16]?
A: Increase of bone apposition rate with respect to the control (rats): none; Bone Apposition Rate, Mean (rats): 1.02 μm/day

Q: Which results are given for “RTNEHTADCKIKPNTLHKKAAETLMVLDQN [SEQ ID NO:15]”?
A: Increase of bone apposition rate with respect to the control (rats): none; Bone Apposition Rate, Mean (rats): 0.92 μm/day

Q: Which results are given for “SEQ ID NO:24: ten amino acid sequence of SEQ ID NO:9, acetylated at the amino terminus and amidated at the carboxy terminus (Ac-RTNEHTADCK-NH2)”?
A: Stability when dissolved in dilute acids ([1]; 5 mM acetic acid, 1 mg/ml, 37° C., analyzed weekly by capillary electrophoresis): degraded overtime; pH above which the peptide dimerized [1, 6]: > 6.0; pH at which the peptide was most stable [1, 6]: ~4.5; pH below which the peptide degraded [1, 6]: < 4.0; Stability as a powder and when dissolved in pH 4.5 buffer ([1]; 20 mM or 250 mM ammonium acetate pH 4.5, 1 mg/ml): very stable; Dissolved peptide compared with dry peptide stored at −70° C. ([1]; ammonium acetate pH 4.5, 1 mg/ml, incubated at 4° C., −20° C. or −70° C., up to 28 days): unchanged; Time after which modification of the peptide was observed (RP-HPLC) ([1]; ammonium acetate pH 4.5, 1 mg/ml, room temperature (22° C.)): 7 days; Mean Bone Apposition Rate (rats; Table Twenty-One, FIG. 14, N=4): 2.04 μm/day; Mean Bone Apposition Rate (rats; [3]): 2.72 μm/day

Q: For “SEQ ID NO:34: SEQ ID NO:24 sequence with one amino acid having a charged side chain substituted by alanine; acetylated, amidated (Ac-ATNEHTADCK-NH2)”, which “Bone stimulatory activity of substituted 10-amino acid polypeptides” value (shortened to “Bone stimulatory activity”) (rats) is on record?
A: Its value is “lack or to exhibit substantially less bone stimulatory activity”.

Q: Which “Bone stimulatory activity” value (rats) does the source give for “SEQ ID NO:36: SEQ ID NO:24 sequence with one amino acid having a charged side chain substituted by alanine; acetylated, amidated (Ac-RTNEATADCK-NH2)” here?
A: The value was “lack or to exhibit substantially less bone stimulatory activity”.

Q: For “SEQ ID NO:37: SEQ ID NO:24 sequence with one amino acid having a charged side chain substituted by alanine; acetylated, amidated (Ac-RTNEHTAACK-NH2)”, which “Bone stimulatory activity” value (rats) is on record?
A: Its value is “lack or to exhibit substantially less bone stimulatory activity”.

Q: Which “Bone stimulatory activity” value (rats) does the source give for “SEQ ID NO:38: SEQ ID NO:24 sequence with one amino acid having a charged side chain substituted by alanine; acetylated, amidated (Ac-RTNEHTADCA-NH2)” here?
A: The value was “lack or to exhibit substantially less bone stimulatory activity”.

Q: For “SEQ ID NO:45: third amino acid asparagine replaced by glutamine, eighth aspartic acid by glutaric acid, ninth cysteine by tyrosine (as printed) (Ac-RTQEHTAEYK; not fully specified; also: position 8 stated as glutaric acid replacing Asp, X10 not defined)”, which “Mean Bone Apposition Rate” value (rats; [4]) is on record?
A: Its value is 1.77 μm/day.

Q: What does the source list for TADCKIKPNTLHKKAAETLMVLD [SEQ ID NO:14]?
A: Increase of bone apposition rate with respect to the control (rats): none; Bone Apposition Rate, Mean (rats): 0.92 μm/day
